This is an account of results in US20260234144A1 (TAY THERAPEUTICS LIMITED, priority 2023, published 2026).

The experiment concerns R223X stop codon in the mutated luciferase gene, ADXC8 luciferase reporter cell line. As to the kind of experiment: cells. The conditions noted are these: ADXC8 cells, 24 hours; for Emax / EC (100% of 200 uM G418 response): 24 h; for Emax: read-out: Fold Over Control, maximum fold response relative to 200 μM G418; for EC (100% of 200 uM G418 response): read-out: pC100%, negative logarithm of the concentration giving the same response as 200 μM G418; for pC100%: negative logarithm of the concentration giving the same response as 200 μM G418. Format: cell-based.

As to `Cc1nc2nc(NC3CCN(Cc4ccccc4O)CC3)nc(N)c2c2c1CCC2` [Example 537], the Emax fell in the range of 100 to 3000% and the EC (100% of 200 uM G418 response) is 0.1 to 1 µM.
The matching figures for `Cc1cc(C)c2c(N)nc(NC3CCN(Cc4ccc(C(F)F)cc4)CC3)nc2n1` [Example 485]: 100 to 3000% and 1 to 10 µM.
The matching figures for `COCc1ccc2c(N)nc(NC3CCN(C)CC3)nc2n1` [Example 237, 7-(methoxymethyl)-N^2-(1-methylpiperidin-4-yl)pyrido[2,3-d]pyrimidine-2,4-diamine]: 100 to 3000% and 10 to 100 µM.
In the same order, the values of `Cc1nc2nc(NC3CCN(C)CC3)nc(N)c2c(C)c1Cl` [Example 130, 6-chloro-5,7-dimethyl-N^2-(1-methylpiperidin-4-yl)pyrido[2,3-d]pyrimidine-2,4-diamine] are 100 to 3000% and 1 to 10 µM.
On to `COc1ccc(CNc2ccc3c(N)nc(NC4CCN(C)CC4)nc3n2)c(OC)c1` [Example 41, N^7-(2,4-dimethoxybenzyl)-N2-(1-methylpiperidin-4-yl)pyrido[2,3-d]pyrimidine-2,4,7-triamine], for which the Emax is 0 to 100% and the EC (100% of 200 uM G418 response) was above 100 µM.
Regarding `Cc1cc(C)c2c(N)nc(NCC3CCCCN3C)nc2n1` (stereo not shown) [Example 144], the Emax was in the range of 100 to 3000% and the EC (100% of 200 uM G418 response) was 1 to 10 µM.
On to `CNc1nc(N[C@H]2CNCC23CC3)nc2nc(C)cc(C)c12` [Example 403], for which the EC (100% of 200 uM G418 response) was in the range of 1 to 10 µM.
Same read-out and setting: the result for `CNc1nc(NCCCN2CCOCC2)nc2nc3c(c(C)c12)CCC3` [Example 296] reads 0.1 to 1 µM.
Regarding `Cc1nc2nc(NC3CCN(C)CC3)nc(N)c2c(-c2ccccc2)c1Cl` [Example 271], the Emax fell in the range of 0 to 100% and the EC (100% of 200 uM G418 response) is above 31.6 µM.
In the same order, the values of `CN1CCC(Nc2nc(N)c3cc(-c4ncco4)cnc3n2)CC1` [Example 645] are 0 to 100% and above 100 µM.
Regarding `CNc1nc(NC2CNCC2(F)F)nc2nc(C)cc(C)c12` (single isomer, unassigned) [Example 437], the pC100% entry is “+ (pC100% > 4.0 ≤ 5.0)”. In addition, the “Fold Over Control” value (maximum fold response relative to 200 μM G418) is given as “## (Fold over Ctrl > 1 ≤ 30)”.
Consider `CNc1nc(NC2CCNCC2)nc2nc(C)c3c(c12)CCC3` [Example 552], for which the EC (100% of 200 uM G418 response) lay in the range of 0.1 to 1 µM.
The same measure, in the same setting: the result for `CNc1nc(N[C@H]2CNCC[C@@H]2O)nc2nc(C)cc(C)c12` [Example 608] reads 1 to 10 µM.
In the case of `Cc1nc2nc(NC3CCN(C)CC3)nc(N)c2c2ccccc12` [Example 9, 6-methyl-N^3-(1-methylpiperidin-4-yl)pyrimido[4,5-c]isoquinoline-1,3-diamine], the Emax was 100 to 3000% and the EC (100% of 200 uM G418 response) was 1 to 10 µM.
The matching figures for `Cc1cc(C)c2c(N)nc(NCCCNCC(F)F)nc2n1` [Example 193]: 100 to 3000% and 10 to 100 µM.
Consider `Cc1c2c(nc3nc(NC4CCN(Cc5cccnc5O)CC4)nc(N)c13)CCC2` [Example 664], for which the Emax lay within 0 to 100% and the EC (100% of 200 uM G418 response) was above 31.6 µM.
Take `Cc1cc(C)c2c(N)nc(N[C@H]3CNC[C@@H]3O)nc2n1` [Example 293]: the EC (100% of 200 uM G418 response) lay within 0.1 to 1 µM.
On to `CNc1nc(N[C@@H]2C[C@@H]3CC[C@H]2N3C)nc2nc(C)cc(C)c12` [Example 368], for which the Emax was in the range of 100 to 3000% and the EC (100% of 200 uM G418 response) lay within 1 to 10 µM.
As for `CN1CCC(Nc2nc(N)c3cc(-c4cn(C)cn4)cnc3n2)CC1` [Example 644], the Emax is 0 to 100% and the EC (100% of 200 uM G418 response) was above 100 µM.
Take `Cc1cc(C)c2c(N)nc(NCCNCC(F)(F)F)nc2n1` [Example 162]: the Emax fell in the range of 0 to 100% and the EC (100% of 200 uM G418 response) was above 31.6 µM.
In the same order, the values of `CNc1nc(N[C@H]2CN(C)C[C@@H]2F)nc2nc(C)c3c(c12)CCC3` [Example 365] are 100 to 3000% and 0.1 to 1 µM.
The matching figures for `COCC1CN(CCNc2nc(N)c3c(C)cc(C)nc3n2)C1` [Example 164]: 0 to 100% and above 31.6 µM.
In the same order, the values of `CC(O)c1ccnc2nc(NC3CCN(C)CC3)nc(N)c12` (stereo not shown) [Example 308] are 0 to 100% and above 100 µM.
As for `Cc1cc(C)c2c(N)nc(NC3CCN(Cc4ccc(O)cc4)CC3)nc2n1` [Example 460], the Emax is 100 to 3000% and the EC (100% of 200 uM G418 response) was 1 to 10 µM.
The matching figures for `CNc1cc(C)c2c(NC)nc(N[C@@H]3CCN(C)C3)nc2n1` [Example 524, (R)—N^4,N^7,5-trimethyl-N^2-(1-methylpyrrolidin-3-yl)pyrido[2,3-d]pyrimidine-2,4,7-triamine]: 100 to 3000% and 1 to 10 µM.
The matching figures for `Cc1cc(C)c2c(N)nc(NC3CCN(Cc4ccc(C#N)cc4O)CC3)nc2n1` [Example 567]: 100 to 3000% and 0.1 to 1 µM.
As to `Cc1cc(C)c2c(N)nc(NC3CCN(Cc4ccc(CO)cc4)CC3)nc2n1` [Example 481], the Emax was 100 to 3000% and the EC (100% of 200 uM G418 response) was 1 to 10 µM.
Regarding `CNc1nc(N[C@H]2CNC[C@@H]2OC)nc2nc3c(c(C)c12)CCC3` [Example 623], the EC (100% of 200 uM G418 response) was 0.1 to 1 µM.
On the same count and under the same terms, the result for `CCNc1nc(N[C@@]23CNC[C@@H]2C3)nc2nc(C)cc(C)c12` [Example 419] reads 0.1 to 1 µM.
On to `Cc1cc(C)c2c(Nc3ccccc3)nc(NC3CCN(C)CC3)nc2n1` [Example 267], for which the Emax is 0 to 100% and the EC (100% of 200 uM G418 response) was above 31.6 µM.
In the same order, the values of `CNc1nc(N[C@H]2CN(C)C[C@H]2C)nc2nc(C)cc(C)c12` [Example 379] are 100 to 3000% and 1 to 10 µM.
In the same order, the values of `CNc1nc(N[C@@H]2CCNC2)nc2nc(C)c(Br)c(C)c12` [Example 331] are 100 to 3000% and 0.1 to 1 µM.
Turning to `CNc1nc(N[C@H]2CN(C)C[C@@H]2OC(=O)C(C)C)nc2nc3c(c(C)c12)CCC3` [Example 684, (3S,4S)-1-methyl-4-((5-methyl-4-(methylamino)-7,8-dihydro-6H-cyclopenta[5,6]pyrido[2,3-d]pyrimidin-2-yl)amino)pyrrolidin-3-yl isobutyrate], the Emax was 100 to 3000% and the EC (100% of 200 uM G418 response) was 0.1 to 1 µM.
In the same order, the values of `Cc1cc(C)c2c(N)nc(NC[C@@H]3CNCCO3)nc2n1` [Example 176] are 100 to 3000% and 1 to 10 µM.
In the same order, the values of `CC(CO)c1ccc2c(N)nc(NC3CCN(C)CC3)nc2n1` (stereo not shown) [Example 240, 2-(4-amino-2-((1-methylpiperidin-4-yl)amino)pyrido[2,3-d]pyrimidin-7-yl)propan-1-ol] are 0 to 100% and above 100 µM.
As to `CNc1nc(N[C@H]2CN[C@H](C(F)F)C2)nc2nc(C)cc(C)c12` [Example 407], the EC (100% of 200 uM G418 response) is 1 to 10 µM.
As for `Cc1cc(C)c2c(N)nc(NCCN3CC4(CCOC4)C3)nc2n1` [Example 183], the Emax lay within 0 to 100% and the EC (100% of 200 uM G418 response) is above 31.6 µM.
`Cc1c2c(nc3nc(NC4CCN(Cc5cc(F)cc(F)c5O)CC4)nc(N)c13)CCC2` [Example 654]: the Emax was in the range of 100 to 3000% and the EC (100% of 200 uM G418 response) was 1 to 10 µM.
The matching figures for `Cc1cc(C)c2c(N)nc(NC3CCN(Cc4ccncc4C(F)F)CC3)nc2n1` [Example 533]: 100 to 3000% and 10 to 100 µM.
Turning to `Cc1cc(C)c2c(NCCn3ccnc3)nc(NC3CCN(C)CC3)nc2n1` [Example 316], the Emax was 0 to 100% and the EC (100% of 200 uM G418 response) was above 31.6 µM.
In the same order, the values of `C=C(C)c1ccc2c(N)nc(NC3CCN(C)CC3)nc2n1` [Example 238, N^2-(1-methylpiperidin-4-yl)-7-(prop-1-en-2-yl) pyrido[2,3-d]pyrimidine-2,4-diamine] are 0 to 100% and above 31.6 µM.
The matching figures for `Cc1cc(C)c2c(N)nc(N[C@@H]3CN4CCC3CC4)nc2n1` [Example 398]: 0 to 100% and above 31.6 µM.
The matching figures for `Cc1cc(C)c2c(N)nc(NCC3CC4(CNC4)C3)nc2n1` [Example 208]: 0 to 100% and above 31.6 µM.
As for `CN1CCC(Nc2nc(N)c3cc(-c4ccn[nH]4)cnc3n2)CC1` [Example 646], the Emax fell in the range of 0 to 100% and the EC (100% of 200 uM G418 response) is above 100 µM.
As for `Cc1cc(C)c2c(N)nc(NC34CNCC3C4)nc2n1` (single isomer, unassigned) [Example 259, N^2-(3-azabicyclo[3.1.0]hexan-1-yl)-5,7-dimethylpyrido[2,3-d]pyrimidine-2,4-diamine], the Emax was in the range of 100 to 3000% and the pC100% result is given as “++ (pC100% > 5.0 ≤ 6.0)”.
On to `Cc1ccc(CN2CCC(Nc3nc(N)c4c(C)cc(C)nc4n3)CC2)cc1` [Example 543], for which the Emax was 100 to 3000% and the EC (100% of 200 uM G418 response) was 1 to 10 µM.
In the same order, the values of `CNc1nc(N[C@@H]2CCCN(C)CC2)nc2nc(C)cc(C)c12` [Example 401] are 100 to 3000% and 1 to 10 µM.
Regarding `Cc1c2c(nc3nc(NC4CCN(Cc5ccc(C#N)cc5)CC4)nc(NCCO)c13)CCC2` [Example 555], the Emax lay within 100 to 3000% and the EC (100% of 200 uM G418 response) lay within 0.1 to 1 µM.
On to `CN1CCC(Nc2nc(N)c3ccc(CO)nc3n2)CC1` [Example 299], for which the Emax fell in the range of 0 to 100% and the EC (100% of 200 uM G418 response) is above 100 µM.
For the molecule `CNCCCNc1nc(N)c2c(C)cc(C)nc2n1` [Example 280], the EC (100% of 200 uM G418 response) is 1 to 10 µM.
Consider `Cc1nc2nc(NC34CCN(CC3)CC4)nc(N)c2c2c1CCC2` [Example 272], for which the Emax lay within 100 to 3000% and the EC (100% of 200 uM G418 response) fell in the range of 0.1 to 1 µM.
As for `CSc1ccc(-c2ccc3c(N)nc(NC4CCN(C)CC4)nc3n2)cc1` [Example 103], the EC (100% of 200 uM G418 response) is 1 to 10 µM.
